Laboratory results: US20260199323A1, “LIGAND COMPOUNDS FOR E3 UBIQUITIN LIGASE, PROTEIN DEGRADERS DEVELOPED ON BASIS OF LIGAND COMPOUNDS, AND USES THEREOF” (GLUETACS THERAPEUTICS (SHANGHAI) CO., LTD., priority 2021, published 2026)

Columns and labels:
Daudi = experiment: CCK-8 tumor cell proliferation, Daudi; set-up: species or system Human; details: Table 13, designed based on BCR-ABL inhibitors; 96 h
Method: (§1) The tumor cells used herein were cultured in a cell culture medium listed in table 4 at 37° C. in an incubator with 5% CO2. Prior to experimentation, all cells used were correctly identified by STR profiling, and tested negative for mycoplasma through routine screenings.
(§2) IC50 values of the compounds of the present disclosure (including the compounds in Tables 1 and 3, and compounds of examples) were measured using the Meilun Cell Counting Kit-8 kit from Dalian Meilun Biotech Co., Ltd. Assay details are as follows: tumor cells were seeded in a 96-well plate at a density listed in Table 5. After 24 h, 100 μL of the inoculated cells were treated with 0.5 μL of the compounds of the present disclosure (including the compounds in Tables 1 and 3, and compounds of examples) at 10 different successively decreasing concentrations (starting at the highest concentration of 10 μM; 5-fold serial dilutions). After the cells were treated with the compounds of the present disclosure for a period of time, the cell viability detection reagent was added to the culture medium for cell viability assessment according to the instructions provided with the CCK-8 kit. […] The growth inhibition of the compounds of the present disclosure on cells was plotted by Prism Graphpad software, and the IC50 values of the compounds of the present disclosure were calculated therefrom.

PC-3 = experiment: CCK-8 tumor cell proliferation, PC-3; type: cell-based, Human; details: 96 h
Method: as §1, §2

NCI-H358 = experiment: CCK-8 tumor cell proliferation, NCI-H358; set-up: species or system Human; details: Table 11, designed based on EGFR inhibitors; 96 h
Method: The tumor cells used herein were cultured in a cell culture medium listed in table 4 at 37° C. in an incubator with 5% CO2.
as §2, with “After” for “IC50 values of the compounds of the present disclosure (including the compounds in Tables 1 and 3, and compounds of examples) were measured using the Meilun Cell Counting Kit-8 kit from Dalian Meilun Biotech Co., Ltd. Assay details are as follows: tumor cells were seeded in a 96-well plate at a density listed in Table 5. After”

HCC827 = experiment: CCK-8 tumor cell proliferation, HCC827; type: cell-based, Human; details: Table 11, designed based on EGFR inhibitors; 96 h
PC-9 = experiment: CCK-8 tumor cell proliferation, PC-9; type: cell-based, Human; details: Table 11, designed based on EGFR inhibitors; 96 h
CCRF-CEM = experiment: CCK-8 tumor cell proliferation, CCRF-CEM; type: cell-based, Human; set-up: IC50 for inhibiting the proliferation of tumor cells, CCRF-CEM: scale not given here; details: for IC50 for inhibiting the proliferation of tumor cells, CCRF-CEM: Table 16, designed based on BET inhibitors, 96 h
Procedure, shortened: (§3)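 Ten-point titrations (10 μM highest, 5-fold steps) were applied to cells 24 h after seeding. After treatment at 37 °C, 5% CO2, cell viability was read with CCK-8 and IC50 values were computed from the resulting inhibition curves.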

Mino = experiment: CCK-8 tumor cell proliferation, Mino; type: cell-based, Human; details: for IC50 for inhibiting the proliferation of tumor cells, Mino: 72 h
Procedure, shortened: as §3

Kasumi-1 = experiment: CCK-8 tumor cell proliferation, Kasumi-1; type: cell-based, Human; details: for IC50 for inhibiting the proliferation of tumor cells, Kasumi-1: 72 h
Procedure, shortened: as §3

Jurkat = experiment: CCK-8 tumor cell proliferation, Jurkat; type: cell-based, Human; details: Homo sapiens, Table 19, IRAK4 inhibitor based, read-out: IC50 inhibiting proliferation of tumor cells, Jurkat
Procedure, shortened: as §3

SU-DHL-4 = experiment: CCK-8 tumor cell proliferation, SU-DHL-4; type: cell-based, Human; details: Homo sapiens, Table 19, IRAK4 inhibitor based, read-out: IC50 inhibiting proliferation of tumor cells, SU-DHL-4
Procedure, shortened: as §3

MV-4-11 = experiment: CCK-8 tumor cell proliferation, MV-4-11; type: cell-based, Human; details: Homo sapiens, MV4-11; Table 19, IRAK4 inhibitor based; MV-4-11; read-out: IC50 inhibiting proliferation of tumor cells, MV-4-11
Procedure, shortened: as §3

CAL-62 = experiment: CCK-8 tumor cell proliferation, CAL-62; type: cell-based, Human; details: Homo sapiens; Table 19, IRAK4 inhibitor based; CAL-62; read-out: IC50 inhibiting proliferation of tumor cells, CAL-62
Procedure, shortened: as §3

MM.1R = experiment: CCK-8 tumor cell proliferation, MM.1R; type: cell-based; details: Table 19, IRAK4 inhibitor based, read-out: IC50 inhibiting proliferation of tumor cells, MM.1R
Procedure, shortened: as §3

NCI-H1666 = experiment: CCK-8 tumor cell proliferation, NCI-H1666; type: cell-based, Human; details: Homo sapiens, Table 19, IRAK4 inhibitor based, read-out: IC50 inhibiting proliferation of tumor cells, NCI-H1666
Method: as §1, §2

SW620 = experiment: CCK-8 tumor cell proliferation, SW620; type: cell-based, Human; details: Homo sapiens, SW-620; Table 19, IRAK4 inhibitor based; SW620; read-out: IC50 inhibiting proliferation of tumor cells, SW620
Procedure, shortened: as §3

[1] = Table 16, designed based on BET inhibitors
[2] = Table 13, designed based on BCR-ABL inhibitors

With Cc1ccc(NC(=O)c2ccc(CN3CCN(Cc4ccc5c(c4)CN(C4CCC(=O)NC4=O)C5=O)CC3)cc2)cc1Nc1nccc(-c2cccnc2)n1 (stereo not drawn) [GT-02969, 4-((4-((2-(2,6-dioxopiperidin-3-yl)-1-oxoisoindolin-5-yl)methyl)piperazin-1-yl)methyl)-N-(4-methyl-3-((4-(pyridin-3-yl)pyrimidin-2-yl)amino)phenyl)benzamide] the “IC50 for inhibiting the proliferation of tumor cells, Daudi” value (Daudi) was “A+”.
For N#Cc1ccc(O[C@H]2CC[C@H](NC(=O)c3ccc(N4CCC(N5CCN(Cc6ccc7c(c6)CN(C6CCC(=O)NC6=O)C7=O)CC5)CC4)nn3)CC2)cc1Cl (stereo partly drawn) [GT-02989, N-((1r,4r)-4-(3-chloro-4-cyanophenoxy)cyclohexyl)-6-(4-(4-((2-(2,6-dioxopiperidin-3-yl)-1-oxoisoindolin-5-yl)methyl)piperazin-1-yl)piperidin-1-yl)pyridazine-3-carboxamide], the “IC50 for inhibiting the proliferation of tumor cells, PC-3” value (PC-3; Table 10, designed based on AR inhibitors) was “A+”.
COc1cc2ncnc(Nc3ccc(F)c(Cl)c3)c2cc1NC(=O)/C=C/CN1CCN(Cc2ccc3c(c2)CN(C2CCC(=O)NC2=O)C3=O)CC1 (stereo not drawn) [GT-03265, (E)-N-(4-((3-chloro-4-fluorophenyl)amino)-7-methoxyquinazolin-6-yl)-4-(4-((2-(2,6-dioxopiperidin-3-yl)-1-oxoisoindolin-5-yl)methyl)piperazin-1-yl)but-2-enamide] was tested, and the “IC50 for inhibiting the proliferation of tumor cells, NCI-H358” value (NCI-H358) was “A+”, the “IC50 for inhibiting the proliferation of tumor cells, HCC827” value (HCC827) was “A+” and the “IC50 for inhibiting the proliferation of tumor cells, PC-9” value (PC-9) was “A+”.
In the case of Cc1sc2c(c1C)C(c1ccc(Cl)cc1)=N[C@@H](CC(=O)NCCN1CCN(Cc3ccc4c(c3)CN(C3CCC(=O)NC3=O)C4=O)CC1)c1nnc(C)n1-2 (stereo partly drawn) [GT-03296, 2-((S)-4-(4-chlorophenyl)-2,3,9-trimethyl-6H-thieno[3,2-f][1,2,4]triazolo[4,3-a][1,4]diazepin-6-yl)-N-(2-(4-((2-(2,6-dioxopiperidin-3-yl)-1-oxoisoindolin-5-yl)methyl)piperazin-1-yl)ethyl)acetamide], the “IC50 for inhibiting the proliferation of tumor cells, CCRF-CEM” value (CCRF-CEM) is reported as “A+”, the “IC50 for inhibiting the proliferation of tumor cells, Mino” value (Mino; [1]) is reported as “A+” and the “IC50 for inhibiting the proliferation of tumor cells, Kasumi-1” value (Kasumi-1; [1]) is reported as “A+”. The “IC50 for inhibiting the proliferation of tumor cells, PC-3” value (PC-3; [1]) was “A+”.
In the case of COc1cc2ncnc(Nc3ccc(Cl)c(Cl)c3F)c2cc1OCc1ccc2c(c1)CN(C1CCC(=O)NC1=O)C2=O (stereo not drawn) [GT-03354, 3-(5-(((4-((3,4-dichloro-2-fluorophenyl)amino)-7-methoxyquinazolin-6-yl)oxy)methyl)-1-oxoisoindolin-2-yl)piperidine-2,6-dione], the “IC50 for inhibiting the proliferation of tumor cells, NCI-H358” value (NCI-H358) is reported as “A+”.
With Cc1ccc(NC(=O)c2ccc(CNCc3ccc4c(c3)CN(C3CCC(=O)NC3=O)C4=O)cc2)cc1Nc1nccc(-c2cccnc2)n1 (stereo not drawn) [GT-03377, 4-((((2-(2,6-dioxopiperidin-3-yl)-1-oxoisoindolin-5-yl)methyl)amino)methyl)-N-(4-methyl-3-((4-(pyridin-3-yl)pyrimidin-2-yl)amino)phenyl)benzamide] the “IC50 for inhibiting the proliferation of tumor cells, Mino” value (Mino; [2]) was “A+”, the “IC50 for inhibiting the proliferation of tumor cells, Daudi” value (Daudi) was “A+” and the “IC50 for inhibiting the proliferation of tumor cells, Kasumi-1” value (Kasumi-1; [2]) was “A+”.
In the case of C=CC(=O)Nc1cc2c(Nc3ccc(F)c(Cl)c3)ncnc2cc1OCCCN1CCN(Cc2ccc3c(c2)CN(C2CCC(=O)NC2=O)C3=O)CC1 (stereo not drawn) [GT-03411, N-(4-((3-chloro-4-fluorophenyl)amino)-7-(3-(4-((2-(2,6-dioxopiperidin-3-yl)-1-oxoisoindolin-5-yl)methyl)piperazin-1-yl)propoxy)quinazolin-6-yl)acrylamide], the “IC50 for inhibiting the proliferation of tumor cells, NCI-H358” value (NCI-H358) is reported as “A+” and the “IC50 for inhibiting the proliferation of tumor cells, PC-9” value (PC-9) is reported as “A+”.
For COc1cc2ncnc(Nc3ccc(Cl)c(Cl)c3F)c2cc1OC1CCN(Cc2ccc3c(c2)CN(C2CCC(=O)NC2=O)C3=O)CC1 (stereo not drawn) [GT-03412, 3-(5-((4-((4-((3,4-dichloro-2-fluorophenyl)amino)-7-methoxyquinazolin-6-yl)oxy)piperidin-1-yl)methyl)-1-oxoisoindolin-2-yl)piperidine-2,6-dione], the “IC50 for inhibiting the proliferation of tumor cells, NCI-H358” value (NCI-H358) was “A+” and the “IC50 for inhibiting the proliferation of tumor cells, PC-9” value (PC-9) was “A+”.
In the case of Cc1nc(Nc2ncc(C(=O)Nc3c(C)cccc3Cl)s2)cc(N2CCC(N(C)Cc3ccc4c(c3)CN(C3CCC(=O)NC3=O)C4=O)CC2)n1 (stereo not drawn) [GT-03545, N-(2-chloro-6-methylphenyl)-2-((6-(4-(((2-(2,6-dioxopiperidin-3-yl)-1-oxoisoindolin-5-yl)methyl)(methyl)amino)piperidin-1-yl)-2-methylpyrimidin-4-yl)amino)thiazole-5-carboxamide], the “IC50 for inhibiting the proliferation of tumor cells, Mino” value (Mino; [2]) is reported as “A+” and the “IC50 for inhibiting the proliferation of tumor cells, Daudi” value (Daudi) is reported as “A+”.
COc1cc(OC)c2c(=O)[nH]c(-c3ccc(N4CCC(N5CCN(Cc6ccc7c(c6)CN(C6CCC(=O)NC6=O)C7=O)CC5)CC4)cc3)nc2c1 (stereo not drawn) [GT-03708, 3-(5-((4-(1-(4-(5,7-dimethoxy-4-oxo-3,4-dihydroquinazolin-2-yl)phenyl)piperidin-4-yl)piperazin-1-yl)methyl)-1-oxoisoindolin-2-yl)piperidine-2,6-dione] was tested, and the “IC50 for inhibiting the proliferation of tumor cells, CCRF-CEM” value (CCRF-CEM) was “A+”, the “IC50 for inhibiting the proliferation of tumor cells, Mino” value (Mino; [1]) was “A+” and the “IC50 for inhibiting the proliferation of tumor cells, PC-3” value (PC-3; [1]) was “A+”.
In the case of O=C1CCC(N2Cc3cc(CN4CCC(n5cc(NC(=O)c6cnn7ccc(N8CCOCC8)nc67)c(C(F)F)n5)CC4)c(F)cc3C2=O)C(=O)N1 (stereo not drawn) [GT-03811, N-(3-(difluoromethyl)-1-(1-((2-(2,6-dioxopiperidin-3-yl)-6-fluoro-1-oxoisoindolin-5-yl)methyl)piperidin-4-yl)-1H-pyrazol-4-yl)-5-morpholinopyrazolo[1,5-a]pyrimidine-3-carboxamide], the IC50 (CCRF-CEM; Homo sapiens, Table 19, IRAK4 inhibitor based, CCRF-CEM, read-out: IC50 inhibiting proliferation of tumor cells, CCRF-CEM) is reported as less than 50 nM, the IC50 (Jurkat) is reported as less than 50 nM and the IC50 (SU-DHL-4) is reported as 100 to 500 nM. The IC50 (MV-4-11) was less than 50 nM, the IC50 (CAL-62) was less than 50 nM and the IC50 (Mino; Homo sapiens, Table 19, IRAK4 inhibitor based, Mino, read-out: IC50 inhibiting proliferation of tumor cells, Mino) was less than 50 nM. The IC50 (MM.1R) was less than 50 nM, the IC50 (Kasumi-1; Homo sapiens, Table 19, IRAK4 inhibitor based, Kasumi-1, read-out: IC50 inhibiting proliferation of tumor cells, Kasumi-1) was less than 50 nM and the IC50 (NCI-H1666) was 50 to 100 nM. The IC50 (SW620) was less than 50 nM.
Cc1sc2c(c1C)C(c1ccc(Cl)cc1)=N[C@@H](CC(=O)OC(C)(C)C)c1nnc(C)n1-2 [JQ-1, reference compound] was tested, and the IC50 (PC-3; Table 16, designed based on BET inhibitors, read-out: IC50 for inhibiting the proliferation of tumor cells, PC-3) was greater than 10000 nM.
